# Test results taken from US9856216B2, “Compounds as TNIK, IKKε and TBK1 inhibitors and pharmaceutical composition comprising same” (GREEN CROSS CORPORATION, priority 2015, dated 2018).
# pIC50: −log10 of the molar value. Structures can show the parent of a compound that is named as a salt.
# Biological target: T1, TNIK (Homo sapiens, UniProt Q9UKE5)
# T1 construct: purchased Promega V4158
# Experiment: ADP-Glo Kinase Assay, inhibition activity on TNIK
# Assay type: biochemical
# Details: read-out: TNIK
# Protocol: The inhibition activities on TNIK, IKKε and TBK1 were measured by a luminometer, TNIK/IKKε/TBK1 Kinase Enzyme System (Promega, Ca# V4158; Invitrogen, PR8031B, Promega, Ca# V3991) and ADP-Glo Kinase Assay using ADP-Glo™ Kinase Analysis Kit (Promega, Ca# V9101) and a kinase reaction buffer [40 mM Tris(pH 7.5), 20 mM MgCl2, 0.1 mg/mL BSA] in accordance with the manufacturer's protocol.
# T1 sequence (Q9UKE5 1-367 limits assumed): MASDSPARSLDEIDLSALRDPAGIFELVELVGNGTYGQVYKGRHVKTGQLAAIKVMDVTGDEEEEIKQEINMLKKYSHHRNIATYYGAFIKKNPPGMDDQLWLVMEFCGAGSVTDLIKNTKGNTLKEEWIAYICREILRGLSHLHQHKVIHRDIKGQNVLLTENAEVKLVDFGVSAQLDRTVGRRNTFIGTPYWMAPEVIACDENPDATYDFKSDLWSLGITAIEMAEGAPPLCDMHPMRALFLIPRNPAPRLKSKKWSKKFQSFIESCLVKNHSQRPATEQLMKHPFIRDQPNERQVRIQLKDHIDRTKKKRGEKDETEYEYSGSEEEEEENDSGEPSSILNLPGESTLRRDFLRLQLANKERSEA
row,pIC50,Compound
1,6.27,"CN(C)CCNc1ccc(C(=O)Nc2ccc(-c3ccco3)c3c2C(=O)NC3)cc1 [Example 291, 4-((2-(Dimethylamino)ethyl)amino)-N-(7-(furan-2-yl)-3-oxoisoindolin-4-yl)benzamide]"
2,6.33,"O=C(Nc1ccc(-c2ccco2)c2c1C(=O)NC2)c1ccc(NCCO)cc1 [Example 292, N-(7-(furan-2-yl)-3-oxoisoindolin-4-yl)-4-((2-hydroxyethyl)amino)benzamide]"
3,6.32,"O=C(Nc1ccc(-c2ccco2)c2c1C(=O)NC2)c1ccc(NCCN2CCCCCC2)cc1 [Example 293, 4-((2-(Azepan-1-yl)ethyl)amino)-N-(7-(furan-2-yl)-3-oxoisoindolin-4-yl)benzamide]"
4,6.64,"CN1CCN(CCNc2ccc(C(=O)Nc3ccc(-c4ccco4)c4c3C(=O)NC4)cc2)CC1 [Example 294, N-(7-(furan-2-yl)-3-oxoisoindolin-4-yl)-4-((2-(4-methylpiperazin-1-yl)ethyl)amino)benzamide]"
5,6.28,"CN1CCN(CCCNc2ccc(C(=O)Nc3ccc(-c4ccco4)c4c3C(=O)NC4)cc2)CC1 [Example 295, N-(7-(furan-2-yl)-3-oxoisoindolin-4-yl)-4-((3-(4-methylpiperazin-1-yl)propyl)amino)benzamide]"
6,7.07,"COc1cccc(-c2ccc(NC(=O)c3ccc(NCCCN4CCOCC4)cc3)c3c2CNC3=O)c1OC [Example 296, N-(7-(2,3-dimethoxyphenyl)-3-oxoisoindolin-4-yl)-4-((3-morpholinopropyl)amino)benzamide]"
7,7.12,"COc1cccc(-c2ccc(NC(=O)c3ccc(NCCN4CCOCC4)cc3)c3c2CNC3=O)c1OC [Example 297, N-(7-(2,3-dimethoxyphenyl)-3-oxoisoindolin-4-yl)-4-((2-morpholinoethyl)amino)benzamide]"
8,7.11,"COc1cccc(-c2ccc(NC(=O)c3ccc(NCCN4CCCCC4)cc3)c3c2CNC3=O)c1OC [Example 298, N-(7-(2,3-dimethoxyphenyl)-3-oxoisoindolin-4-yl)-4-((2-(piperidin-1-yl)ethyl)amino)benzamide]"
9,7.30,"COc1cccc(-c2ccc(NC(=O)c3ccc(NCCN4CCCC4)cc3)c3c2CNC3=O)c1OC [Example 299, N-(7-(2,3-dimethoxyphenyl)-3-oxoisoindolin-4-yl)-4-((2-(pyrrolidin-1-yl)ethyl)amino)benzamide]"
10,6.96,"COCCNc1ccc(C(=O)Nc2ccc(-c3cccc(OC)c3OC)c3c2C(=O)NC3)cc1 [Example 300, N-(7-(2,3-dimethoxyphenyl)-3-oxoisoindolin-4-yl)-4-((2-methoxyethyl)amino)benzamide]"
11,7.00,"COc1cccc(-c2ccc(NC(=O)c3ccc(NCCN(C)C)cc3)c3c2CNC3=O)c1OC [Example 301, N-(7-(2,3-dimethoxyphenyl)-3-oxoisoindolin-4-yl)-4-((2-(dimethylamino)ethyl)amino)benzamide]"
12,6.80,"COc1ccccc1-c1ccc(NC(=O)c2ccc(NCCCN3CCCC3)cc2)c2c1CNC2=O [Example 302, N-(7-(2-methoxyphenyl)-3-oxoisoindolin-4-yl)-4-((3-(pyrrolidin-1-yl)propyl)amino)benzamide]"
13,6.52,"COc1ccccc1-c1ccc(NC(=O)c2ccc(NCCN3CCCC3)cc2)c2c1CNC2=O [Example 303, N-(7-(2-methoxyphenyl)-3-oxoisoindolin-4-yl)-4-((2-(pyrrolidin-1-yl)ethyl)amino)benzamide hydrochloride]"
14,7.14,"COc1cccc(-c2ccc(NC(=O)c3ccc(NCCN4CCCC4)cc3)c3c2CNC3=O)c1OC [Example 304, N-(7-(2,3-dimethoxyphenyl)-3-oxoisoindolin-4-yl)-4-((2-(pyrrolidin-1-yl)ethyl)amino)benzamide hydrochloride]"
15,6.70,"COc1ccccc1-c1ccc(NC(=O)c2ccc(NCCN(C)C)cc2)c2c1CNC2=O [Example 305, 4-((2-(Dimethylamino)ethyl)amino)-N-(7-(2-methoxyphenyl)-3-oxoisoindolin-4-yl)benzamide]"
16,7.13,"COc1cccc(-c2ccc(NC(=O)c3ccc(NCCCN(C)C)cc3)c3c2CNC3=O)c1OC [Example 306, N-(7-(2,3-dimethoxyphenyl)-3-oxoisoindolin-4-yl)-4-((3-(dimethylamino)propyl)amino)benzamide]"
17,6.72,"COc1ccccc1-c1ccc(NC(=O)c2ccc(NCCCN3CCCCC3)cc2)c2c1CNC2=O [Example 307, N-(7-(2-methoxyphenyl)-3-oxoisoindolin-4-yl)-4-((3-(piperidin-1-yl)propyl)amino)benzamide]"
18,7.28,"COc1cccc(-c2ccc(NC(=O)c3ccc(NCCCN4CCCCC4)cc3)c3c2CNC3=O)c1OC [Example 308, N-(7-(2,3-dimethoxyphenyl)-3-oxoisoindolin-4-yl)-4-((3-(piperidin-1-yl)propyl)amino)benzamide]"
19,5.32,"Cc1cc(NCCN2CCCC2)ccc1C(=O)Nc1ccc(-c2ccccc2)c2c1C(=O)NC2 [Example 309, 2-Methyl-N-(3-oxo-7-phenylisoindolin-4-yl)-4-((2-(pyrrolidin-1-yl)ethyl)amino)benzamide]"
20,6.41,"COCCCNc1ccc(C(=O)Nc2ccc(-c3cccnc3OC)c3c2C(=O)NC3)cc1 [Example 310, 4-((3-Methoxypropyl)amino)-N-(7-(2-methoxypyridin-3-yl)-3-oxoisoindolin-4-yl)benzamide]"
21,7.28,"COc1cccc(-c2ccc(NC(=O)c3ccc(NCCO)cc3)c3c2CNC3=O)c1OC [Example 311, N-(7-(2,3-dimethoxyphenyl)-3-oxoisoindolin-4-yl)-4-((2-hydroxyethyl)amino)benzamide]"
22,6.14,"COc1cccc(-c2ccc(NC(=O)c3ccc(N4CCOCC4)cc3)c3c2CNC3=O)c1OC [Example 312, N-(7-(2,3-dimethoxyphenyl)-3-oxoisoindolin-4-yl)-4-morpholinobenzamide]"
23,6.35,"COc1c(F)cccc1-c1ccc(NC(=O)c2ccc(NCCN3CCCC3)cc2)c2c1CNC2=O [Example 313, N-(7-(3-fluoro-2-methoxyphenyl)-3-oxoisoindolin-4-yl)-4-((2-(pyrrolidin-1-yl)ethyl)amino)benzamide]"
24,7.07,"COc1cccc(-c2ccc(NC(=O)c3ccc(NCCN4CCN(C)CC4)cc3)c3c2CNC3=O)c1OC [Example 314, N-(7-(2,3-dimethoxyphenyl)-3-oxoisoindolin-4-yl)-4-((2-(4-methylpiperazin-1-yl)ethyl)amino)benzamide]"
25,7.43,"COc1cccc(-c2ccc(NC(=O)c3ccc(NCCN)cc3)c3c2CNC3=O)c1OC [Example 315, 4-((2-Aminoethyl)amino)-N-(7-(2,3-dimethoxyphenyl)-3-oxoisoindolin-4-yl)benzamide]"
26,7.24,"COc1cccc(-c2ccc(NC(=O)c3ccc(NCCCN4CCN(C)CC4)cc3)c3c2CNC3=O)c1OC [Example 316, N-(7-(2,3-dimethoxyphenyl)-3-oxoisoindolin-4-yl)-4-((3-(4-methylpiperazin-1-yl)propyl)amino)benzamide]"
27,6.44,"O=C(Nc1ccc(-c2ccccc2)c2c1C(=O)NC2)c1ccc(NCCN2CCCC2)cc1 [Example 317, N-(3-oxo-7-phenylisoindolin-4-yl)-4-((2-(pyrrolidin-1-yl)ethyl)amino)benzamide]"
